# Experimental data published in the supplement of paper PMC10307832.
# What was measured:
# Experiment in all cases: relative viability (nuclei count vs DMSO), 5 days (fraction); higher = more cells survive
# A549 = test system: A549
# Outline: (§1)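 Relative viability equals treated-well nuclei counts divided by vehicle-well nuclei counts. Counts came from 4× images of lung cancer cell lines grown in 1536-well plates for 5 days after pin-tool dosing on the day after seeding. Dosing used one drug alone or a fixed anchor-drug dose plus five library-drug doses (not always all listed) in √10 steps, and values are medians of duplicate plates.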
# Calu-6 = test system: Calu-6
# Outline: as §1
# EBC-1 = test system: EBC-1
# Outline: as §1
# IA-LM = test system: IA-LM
# Outline: as §1
# LCLC-97TM1 = test system: LCLC-97TM1
# Outline: as §1
# NCI-H1299 = test system: NCI-H1299
# Outline: as §1
# NCI-H1355 = test system: NCI-H1355
# Outline: as §1
# NCI-H1437 = test system: NCI-H1437
# Outline: as §1
# NCI-H1703 = test system: NCI-H1703
# Outline: as §1
# NCI-H596 = test system: NCI-H596
# Outline: as §1
compound,measurement,setting,value
Cc1csc(=NC2CCCCC2)n1/N=C/c1ccc(O)c(O)c1O [MIM1] + CS(=O)(=O)CCNCc1ccc(-c2ccc3ncnc(Nc4ccc(OCc5cccc(F)c5)c(Cl)c4)c3c2)o1 [Lapatinib] (partner 2 µM),relative viability,A549; first compound 0.2 µM,0.997
same,relative viability,A549; first compound 0.6325 µM,0.941
same,relative viability,A549; first compound 2 µM,1.03
same,relative viability,A549; first compound 6.325 µM,0.595
same,relative viability,A549; first compound 20 µM,0.222
same,relative viability,Calu-6; first compound 0.2 µM,1.08
same,relative viability,Calu-6; first compound 0.6325 µM,0.985
same,relative viability,Calu-6; first compound 2 µM,1.06
same,relative viability,Calu-6; first compound 6.325 µM,0.509
same,relative viability,Calu-6; first compound 20 µM,0.289
same,relative viability,EBC-1; first compound 0.2 µM,0.199
same,relative viability,EBC-1; first compound 0.6325 µM,0.279
same,relative viability,EBC-1; first compound 2 µM,0.212
same,relative viability,EBC-1; first compound 6.325 µM,0.209
same,relative viability,EBC-1; first compound 20 µM,0.205
same,relative viability,IA-LM; first compound 0.2 µM,0.66
same,relative viability,IA-LM; first compound 0.6325 µM,0.869
same,relative viability,IA-LM; first compound 2 µM,0.716
same,relative viability,IA-LM; first compound 6.325 µM,0.375
same,relative viability,IA-LM; first compound 20 µM,0.151
same,relative viability,LCLC-97TM1; first compound 0.2 µM,1.04
same,relative viability,LCLC-97TM1; first compound 0.6325 µM,0.526
same,relative viability,LCLC-97TM1; first compound 2 µM,0.539
same,relative viability,LCLC-97TM1; first compound 6.325 µM,0.353
same,relative viability,LCLC-97TM1; first compound 20 µM,0.128
same,relative viability,NCI-H1299; first compound 0.2 µM,0.978
same,relative viability,NCI-H1299; first compound 0.6325 µM,0.954
same,relative viability,NCI-H1299; first compound 2 µM,1
same,relative viability,NCI-H1299; first compound 6.325 µM,0.924
same,relative viability,NCI-H1299; first compound 20 µM,0.948
same,relative viability,NCI-H1355; first compound 0.2 µM,0.988
same,relative viability,NCI-H1355; first compound 0.6325 µM,0.902
same,relative viability,NCI-H1355; first compound 2 µM,0.967
same,relative viability,NCI-H1355; first compound 6.325 µM,0.738
same,relative viability,NCI-H1355; first compound 20 µM,0.483
same,relative viability,NCI-H1437; first compound 0.2 µM,0.761
same,relative viability,NCI-H1437; first compound 0.6325 µM,0.672
same,relative viability,NCI-H1437; first compound 2 µM,0.91
same,relative viability,NCI-H1437; first compound 6.325 µM,0.456
same,relative viability,NCI-H1437; first compound 20 µM,0.148
same,relative viability,NCI-H1703; first compound 0.2 µM,1.02
same,relative viability,NCI-H1703; first compound 0.6325 µM,1.23
same,relative viability,NCI-H1703; first compound 2 µM,0.906
same,relative viability,NCI-H1703; first compound 6.325 µM,0.166
same,relative viability,NCI-H1703; first compound 20 µM,0.202
same,relative viability,NCI-H596; first compound 0.2 µM,1.13
same,relative viability,NCI-H596; first compound 0.6325 µM,1.16
same,relative viability,NCI-H596; first compound 2 µM,1.07
same,relative viability,NCI-H596; first compound 6.325 µM,0.932
same,relative viability,NCI-H596; first compound 20 µM,0.733
Cc1cn(-c2cc(NC(=O)c3ccc(C)c(Nc4nccc(-c5cccnc5)n4)c3)cc(C(F)(F)F)c2)cn1 [Nilotinib] + C[C@@H](Oc1cc(-c2cnn(C3CCNCC3)c2)cnc1N)c1c(Cl)ccc(F)c1Cl [Crizotinib] (partner 1 µM),relative viability,A549; first compound 0.001 µM,0.916
same,relative viability,A549; first compound 0.003162 µM,0.976
same,relative viability,A549; first compound 0.01 µM,1.09
same,relative viability,A549; first compound 0.03162 µM,0.501
same,relative viability,A549; first compound 0.1 µM,0.547
same,relative viability,Calu-6; first compound 0.001 µM,0.677
same,relative viability,Calu-6; first compound 0.003162 µM,0.798
same,relative viability,Calu-6; first compound 0.01 µM,1.19
same,relative viability,Calu-6; first compound 0.03162 µM,0.548
same,relative viability,Calu-6; first compound 0.1 µM,0.637
same,relative viability,EBC-1; first compound 0.001 µM,0.216
same,relative viability,EBC-1; first compound 0.003162 µM,0.202
same,relative viability,EBC-1; first compound 0.01 µM,0.174
same,relative viability,EBC-1; first compound 0.03162 µM,0.157
same,relative viability,EBC-1; first compound 0.1 µM,0.164
same,relative viability,IA-LM; first compound 0.003162 µM,0.77
same,relative viability,IA-LM; first compound 0.01 µM,0.835
same,relative viability,IA-LM; first compound 0.03162 µM,0.637
same,relative viability,IA-LM; first compound 0.1 µM,0.659
same,relative viability,LCLC-97TM1; first compound 0.001 µM,0.246
same,relative viability,LCLC-97TM1; first compound 0.003162 µM,0.328
same,relative viability,LCLC-97TM1; first compound 0.01 µM,0.712
same,relative viability,LCLC-97TM1; first compound 0.03162 µM,0.311
same,relative viability,LCLC-97TM1; first compound 0.1 µM,0.469
same,relative viability,NCI-H1299; first compound 0.001 µM,0.925
same,relative viability,NCI-H1299; first compound 0.003162 µM,1.01
same,relative viability,NCI-H1299; first compound 0.01 µM,1.07
same,relative viability,NCI-H1299; first compound 0.03162 µM,0.918
same,relative viability,NCI-H1299; first compound 0.1 µM,0.969
same,relative viability,NCI-H1355; first compound 0.001 µM,1.05
same,relative viability,NCI-H1355; first compound 0.003162 µM,1.15
same,relative viability,NCI-H1355; first compound 0.01 µM,1.38
same,relative viability,NCI-H1355; first compound 0.03162 µM,0.909
same,relative viability,NCI-H1355; first compound 0.1 µM,1.09
same,relative viability,NCI-H1437; first compound 0.001 µM,0.789
same,relative viability,NCI-H1437; first compound 0.003162 µM,1.25
same,relative viability,NCI-H1437; first compound 0.01 µM,1.13
same,relative viability,NCI-H1437; first compound 0.03162 µM,0.705
same,relative viability,NCI-H1437; first compound 0.1 µM,0.866
same,relative viability,NCI-H1703; first compound 0.003162 µM,0.403
same,relative viability,NCI-H1703; first compound 0.01 µM,0.291
same,relative viability,NCI-H1703; first compound 0.03162 µM,0.191
same,relative viability,NCI-H1703; first compound 0.1 µM,0.175
same,relative viability,NCI-H596; first compound 0.001 µM,0.937
same,relative viability,NCI-H596; first compound 0.01 µM,1.07
same,relative viability,NCI-H596; first compound 0.03162 µM,0.958
same,relative viability,NCI-H596; first compound 0.1 µM,1.1
